Test results taken from US20140094413A1, “HEPATOCYTE GROWTH FACTOR (HGF) MIMICS AS THERAPEUTIC AGENTS” (WASHINGTON STATE UNIVERSITY, priority 2012, published 2014).
“And” between values parts separate entries of the source, which are not always exact repeats. Identical values can stand only once. “Also recorded” adds a separate entry of the source. Where a SMILES comes first, the peptide text is derived from it. [ ]: non-standard residue; d: D form. The star is where a group is joined. Nle = CCCC[C@H](N)C(=O)O; Hexanoyl = CCCCCC(=O)*; Ahx = NCCCCCC(=O)O

How the values were obtained:
hippocampal neurons [1] = assay: Whole-cell recordings of mEPSCs in dissociated hippocampal neurons; type: cell-based, rat; parameters: unit not given beside the values; conditions: 5 days
c-Met receptor = assay: c-Met phosphorylation in acute adult rat hippocampal slices; type: cell-based; conditions: 30 minutes
Source text: Adult Sprague-Dawley rats (250 g+) obtained from Harlan Laboratories (Ca, USA) were anesthetized with isofluorane (Vet One™, MWI, Meridian, Id., USA) and decapitated. The brain was rapidly removed and placed into ice-chilled artificial cerebrospinal fluid (aCSF) for approximately 30 s. Both hemispheres were separated by a mid-saggital cut and both hippocampi removed. Slices were sectioned cross- and length-wise (400 μm) to ensure penetrability of the drug, using a McIlwain tissue chopper (Brinkmann, Gomshall, UK) and transferred to a gassed (95% O2/5% CO2) incubation chamber containing aCSF for 90 minutes at room temperature. Slices were transferred to fresh tubes, aCSF was removed by careful suctioning and replaced with aCSF containing vehicle (aCSF+aCSF), 100 ng/ml with carrier free adult recombinant Hepatocyte Growth Factor (HGF) (R and D Systems, MN, USA) in aCSF, 10^−10 M Hinge (Harding lab), […], 10^−10 M Dihexa (Harding lab) in aCSF, 10^−12 M Dihexa in aCSF or 50 ng/ml HGF+10^−12 M Dihexa in aCSF for 30 minutes at 37° C. with gentle rocking. aCSF was removed and the slices were lysed using RIPA buffer (Upstate/Milipore, Billerica, Mass.) and inhibitor Cocktails I and II (Sigma, St. Louis, Mo.), sonicated on ice and clarified by centrifugation for 30 minutes, 13,000 rpm at 4° C. The supernatant was removed from the pellet and stored at −80° C. or processed immediately for gel electrophoresis.
Protein concentration of the samples was quantified using the BCA method (Pierce, Rockford, Ill.) following the manufacturers protocol. Samples were added to SDS-PAGE buffer and boiled for 10 min. before loading onto a 4-12% Bis-Tris pre-cast gel (Invitrogen, Carlsbad, Calif.) for electrophoresis. Proteins were transferred onto PVDF membranes (Bio Rad, Hercules, Calif.) and blocked with AquaBlock™ (New England Biolabs, Ipswich, Mass.) for 1 hour at room temperature (RT). Primary antibody incubation was done in AquaBlock™ with rabbit anti-Met and […] phospho-Met (Tyr1234/1235) (1:1000, Cell Signaling Technology, Danvers, Mass.) overnight at 4° C. Alternating washes were done with PBS and PBST. Secondary antibody (IRDye) (Rockland, Gilbertsville, Pa.) incubations were done in AquaBlock™ for one hour at RT. Blots were imaged using LI-COR Odyssey Infrared Imaging System (LI-COR Biosciences, Lincoln, Nebr.).

hippocampal neurons [2] = assay: Immunocytochemistry: correlation of spines with synaptic markers; type: cell-based, rat; conditions: 10^−12 M, 5 days
Experimental: (§1) Transfected neurons were treated, fixed and stained. Briefly, cells were permeablized with 0.1% Triton X-100 detergent (Bio-Rad; Hercules, Calif.) for 10 minutes. An 8% bovine serum albumin (Intergen Company; Burlington, Mass.) in PBS was used to prevent non-specific binding for one hour at R.T.; Primary antibody incubations were at a 1:2500 dilution (see below) in 1% BSA in PBS at 4° C. overnight. Secondary antibody, 1:3000 Alexafluor 488 goat-anti-mouse (Invitrogen: Carlsbad, Calif.) was applied for two hours at room temperature. Coverslips were mounted with ProLong Gold anti-fade reagent (Invitrogen; Carlsbad, Calif.) and all washes were done with PBS. Imaging and analysis were performed as described above. For presynaptic excitatory transmission the VGLUT1 (Synaptic Systems, Goettingen, Germany) marker (Balschun, Moechars et al.) was employed and for general presynaptic transmission synapsin1 (Synaptic Systems, Goettingen, Germany) (Ferreira and Rapoport 2002) was applied. A postsynaptic function was established by PSD-95 (Milipore, Billerica, Mass.) (El-Husseini, Schnell et al. 2000). In each instance the total number of spines was counted for the treatment groups, control, Nle1-AngIV and Dihexa, to ensure an active phenotype. The total number of actin enriched spines adjacent to VGLUT1 or Synapsin were counted and converted to a percentage as the percent correlation of treatment-induced spines to presynaptic markers is a strong indicator of ability to transmit excitatory signals.
as §1, with “fixed and stained as previously described in Chapter two. Briefly, cells” for “fixed and stained. Briefly, cells”, “enriched spines (red) adjacent to” for “enriched spines adjacent to”

CA1 hippocampal neurons = assay: Spinogenesis in organotypic hippocampal slice cultures; type: cell-based, rat
Experimental: (§2) Hippocampi from P4 Sprague Dawley rats were cultured as previously described (Wayman, Impey et al. 2006). Briefly, 400 μm slices were cultured on (Milipore, Billerica, Mass.) for 3 days after which they were biolistically transfected with tomato fluorescent protein (TIT) using a Helios Gen Gun (BioRad, Hercules, Calif.), according to the manufacturer's protocol, to visualize dendritic arbors. Following a 24 hour recovery period slices were stimulated with vehicle (H2O), […] Nle1-AngIV or Dihexa for 2 days. Slices were fixed and mounted. Hippocampal CA1 neuronal processes were imaged and measured as described above.
as §2, with “(TFP)” for “(TIT)”, “Gene” for “Gen”, “with” for “with vehicle (H2O),”

[3] = saturating doses: HGF 100 ng/ml, Dihexa 10^−10 M
[4] = sub-threshold doses: HGF 50 ng/ml, Dihexa 10^−12 M

Compound | mEPSC mean frequency (hippocampal neurons [1]; 10^−12 M (each)) | c-Met phosphorylation vs vehicle (aCSF) (c-Met receptor; [3]) | c-Met phosphorylation vs vehicle (aCSF) (c-Met receptor; [4]) | % Correlation PSD-95 (hippocampal neurons [2]) [%] | % Correlation Synapsin (hippocampal neurons [2]) [%] | % Correlation VGLUT1 (hippocampal neurons [2]) [%] | Number of spines/50 μm (PSD-95 experiment) (hippocampal neurons [2]) [spines/50 μm] | Number of spines/50 μm (Synapsin experiment) (hippocampal neurons [2]) [spines/50 μm] | Number of spines/50 μm (VGLUT1 experiment) (hippocampal neurons [2]) | Spines per 50 μm dendrite length, CA1 neurons (CA1 hippocampal neurons; 10^−12 M, 2 days) | mEPSC mean frequency (hippocampal neurons [1]; HGF 10 ng/ml) | Spines per 50 μm dendrite length, CA1 neurons (CA1 hippocampal neurons; HGF 10 ng/ml, 48 hours)
CCCCCC(=O)N[C@@H](Cc1ccc(O)cc1)C(=O)N[C@H](C(=O)NCCCCCC(N)=O)[C@@H](C)CC [Dihexa, N-hexanoic-Tyr-Ile-(6)-aminohexanoic amide] (Hexanoyl-Tyr-Ile-[Ahx]-NH2) | 6.75±0.99 and 8.25±0.56 | both increased c-Met phosphorylation; also recorded: effectively augment c-Met phosphorylation | not statistically different from control treated slices; also recorded: did not significantly increase c-Met receptor phosphorylation | 98.71 | 96.3 | 94.4 | 43 | 37 | 44.2 spines/50 μm and 44 spines/50 μm | 11 spines per 50 μm dendrite length and 15.0 spines per 50 μm dendrite length |  | 
CCCC[C@H](N)C(=O)N[C@@H](Cc1ccc(O)cc1)C(=O)N[C@H](C(=O)N[C@@H](Cc1c[nH]cn1)C(=O)N1CCC[C@H]1C(=O)N[C@@H](Cc1ccccc1)C(=O)O)[C@@H](C)CC [Nle1-AngIV, reference compound] (H-[Nle]YIHPF-OH; N-terminus and C-terminus assumed) |  |  |  | 97.38 | 94.2 | 95.1 | 36 | 31 | 39.4 spines/50 μm and 39 spines/50 μm | 11 spines per 50 μm dendrite length |  | 
HGF: Hepatocyte growth factor, recombinant, purchased from R&D Systems |  | both increased c-Met phosphorylation; also recorded: effectively augment c-Met phosphorylation | not statistically different from control treated slices; also recorded: did not significantly increase c-Met receptor phosphorylation |  |  |  |  |  |  |  | 7.09±0.53 and 9.66±0.20 | 18.5 spines per 50 μm dendrite length
